Reference: BigSolDB 2.1

Compound: O=C1OC(=O)[C@H]2[C@@H]1[C@@H]1C=C[C@H]2O1
- solubility (mole fraction) (in 1,4-dioxane, 288.15 K): 0.0221
- solubility (mole fraction) (in 1,4-dioxane, 293.15 K): 0.0275
- solubility (mole fraction) (in 1,4-dioxane, 298.15 K): 0.0342
- solubility (mole fraction) (in 1,4-dioxane, 303.15 K): 0.0421
- solubility (mole fraction) (in 1,4-dioxane, 308.15 K): 0.052
- solubility (mole fraction) (in 1,4-dioxane, 313.15 K): 0.0682
- solubility (mole fraction) (in 1,4-dioxane, 318.15 K): 0.0869
- solubility (mole fraction) (in 1,4-dioxane, 323.15 K): 0.131
- solubility (mole fraction) (in acetone, 278.15 K): 0.0386
- solubility (mole fraction) (in acetone, 283.15 K): 0.0439
- solubility (mole fraction) (in acetone, 288.15 K): 0.0477
- solubility (mole fraction) (in acetone, 293.15 K): 0.0551
- solubility (mole fraction) (in acetone, 298.15 K): 0.0617
- solubility (mole fraction) (in acetone, 303.15 K): 0.0703
- solubility (mole fraction) (in acetone, 308.15 K): 0.0814
- solubility (mole fraction) (in acetone, 313.15 K): 0.0929
- solubility (mole fraction) (in acetone, 318.15 K): 0.104
- solubility (mole fraction) (in acetone, 323.15 K): 0.126
- solubility (mole fraction) (in ethanol, 278.15 K): 0.000635
- solubility (mole fraction) (in ethanol, 283.15 K): 0.00076
- solubility (mole fraction) (in ethanol, 288.15 K): 0.00091
- solubility (mole fraction) (in ethanol, 293.15 K): 0.00102
- solubility (mole fraction) (in ethanol, 298.15 K): 0.00124
- solubility (mole fraction) (in ethanol, 303.15 K): 0.00145
- solubility (mole fraction) (in ethanol, 308.15 K): 0.00169
- solubility (mole fraction) (in ethanol, 313.15 K): 0.00202
- solubility (mole fraction) (in ethanol, 318.15 K): 0.00238
- solubility (mole fraction) (in ethanol, 323.15 K): 0.00292
- solubility (mole fraction) (in ethyl acetate, 278.15 K): 0.0152
- solubility (mole fraction) (in ethyl acetate, 283.15 K): 0.0165
- solubility (mole fraction) (in ethyl acetate, 288.15 K): 0.02
- solubility (mole fraction) (in ethyl acetate, 293.15 K): 0.0223
- solubility (mole fraction) (in ethyl acetate, 298.15 K): 0.0274
- solubility (mole fraction) (in ethyl acetate, 303.15 K): 0.0309
- solubility (mole fraction) (in ethyl acetate, 308.15 K): 0.0364
- solubility (mole fraction) (in ethyl acetate, 313.15 K): 0.0414
- solubility (mole fraction) (in ethyl acetate, 318.15 K): 0.0475
- solubility (mole fraction) (in ethyl acetate, 323.15 K): 0.0559
- solubility (mole fraction) (in methyl acetate, 278.15 K): 0.0225
- solubility (mole fraction) (in methyl acetate, 283.15 K): 0.028
- solubility (mole fraction) (in methyl acetate, 288.15 K): 0.0297
- solubility (mole fraction) (in methyl acetate, 293.15 K): 0.0357
- solubility (mole fraction) (in methyl acetate, 298.15 K): 0.0416
- solubility (mole fraction) (in methyl acetate, 303.15 K): 0.0483
- solubility (mole fraction) (in methyl acetate, 308.15 K): 0.0587
- solubility (mole fraction) (in methyl acetate, 313.15 K): 0.068
- solubility (mole fraction) (in methyl acetate, 318.15 K): 0.0805
- solubility (mole fraction) (in methyl acetate, 323.15 K): 0.0963
